Source: PubChem BioAssay (NCI)
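Interpolation was linear, between the two tested concentrations surrounding the appropriate level; five concentrations were tested over 48 hours in 96-well plates. The concentration for full growth arrest is given as TGI.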

Assays:
Test in all cases: NCI-60 cell line screen, 48 h
786-0 renal = test system: 786-0 renal
A549 NSCLC = test system: A549 NSCLC
CAKI-1 renal = test system: CAKI-1 renal
CCRF-CEM leukemia = test system: CCRF-CEM leukemia
HCC-2998 colon = test system: HCC-2998 colon
HCT-15 colon = test system: HCT-15 colon
HT29 colon = test system: HT29 colon
K-562 leukemia = test system: K-562 leukemia
MOLT-4 leukemia = test system: MOLT-4 leukemia
OVCAR-4 ovarian = test system: OVCAR-4 ovarian
OVCAR-5 ovarian = test system: OVCAR-5 ovarian
SF-539 CNS = test system: SF-539 CNS
SK-MEL-2 melanoma = test system: SK-MEL-2 melanoma
SK-MEL-28 melanoma = test system: SK-MEL-28 melanoma
SK-OV-3 ovarian = test system: SK-OV-3 ovarian
SN12C renal = test system: SN12C renal
TK-10 renal = test system: TK-10 renal
HS 578T breast = test system: HS 578T breast
MDA-MB-435 = test system: MDA-MB-435

SMILES	TGI (786-0 renal) [µM]	TGI (A549 NSCLC) [µM]	TGI (CAKI-1 renal) [µM]	TGI (CCRF-CEM leukemia) [µM]	TGI (HCC-2998 colon) [µM]	TGI (HCT-15 colon) [µM]	TGI (HT29 colon) [µM]	TGI (K-562 leukemia) [µM]	TGI (MOLT-4 leukemia) [µM]	TGI (OVCAR-4 ovarian) [µM]	TGI (OVCAR-5 ovarian) [µM]	TGI (SF-539 CNS) [µM]	TGI (SK-MEL-2 melanoma) [µM]	TGI (SK-MEL-28 melanoma) [µM]	TGI (SK-OV-3 ovarian) [µM]	TGI (SN12C renal) [µM]	TGI (TK-10 renal) [µM]	TGI (HS 578T breast) [µM]	TGI (MDA-MB-435) [µM]
O=c1ccn(/C=C/C(O)C(O)CO)c(=O)[nH]1 (stereo unspecified)	> 100	> 100	> 100	> 100	> 100	> 100	> 100	> 100	> 100	> 100	> 100	> 100	> 100	> 100	> 100	> 100	> 100	–	–
CC(C)N(C(=O)C12C3C4C1C1C2C3C41C(=O)N(C(C)C)C(C)C)C(C)C (stereo unspecified)	> 50	> 50	> 50	> 50	> 50	> 50	> 50	> 50	> 50	> 50	> 50	> 50	> 50	> 50	> 50	> 50	> 50	–	–
CN(C)CC(/C(Cc1ccccc1)=N\NC(=S)NN)c1ccccc1 (stereo unspecified)	> 100	> 100	> 100	–	> 100	> 100	> 100	> 100	> 100	> 100	> 100	> 100	–	> 100	> 100	> 100	> 100	–	–
CSc1ccc2c(cc1=O)C(NC(=O)c1ccc(C#N)cc1)CCc1cc(O)c(O)c(O)c1-2 (stereo unspecified)	> 100	> 100	–	57.8	81.6	36.6	75.3	25.1	59	27.2	> 100	36.1	–	> 100	63.7	40.3	> 100	–	–
COc1ccc(C(=O)Oc2c(C#N)sc3c2c(=O)n(-c2ccccc2)c(=S)n3-c2ccccc2)cc1	> 100	> 100	68.9	74	84.8	46.3	62	> 100	46.5	79	68.5	49.3	–	> 100	> 100	68.2	76	69.6	60.7
O=C(CC(=O)c1ccccc1)C(=O)Nc1ccc(Cl)cc1	> 100	> 100	> 100	> 100	> 100	> 59.7	> 59.6	> 100	> 100	> 100	> 100	> 100	> 100	> 100	> 100	> 100	> 100	–	–
Nc1nc2c(ncn2CCCC(c2ccccc2)P(=O)(O)O)c(=O)[nH]1 (stereo unspecified)	> 100	> 100	> 100	> 100	> 100	> 100	> 100	> 100	> 100	–	> 100	> 100	> 100	> 100	> 100	> 100	> 100	–	–
CCC(=O)C(CCN1CCC(N2C(=O)C(CCC#N)c3ccccc32)CC1)(c1ccccc1)c1ccccc1 (stereo unspecified)	24.7	31.7	96.4	–	25.2	26	12.9	23.1	25	–	67.7	34.5	29.7	34.9	37.9	34	31.2	26.5	17.6
C/C(N=NS(=O)(=O)c1ccc(C)cc1)=C1\C=CC=CN1O	> 100	> 100	> 100	> 100	> 100	> 100	> 100	–	> 100	> 100	> 100	> 100	–	> 100	> 100	> 100	> 100	–	–
CS(=O)(=O)C1(Br)S(=O)(=O)OCCOS1(=O)=O	> 100	> 100	–	> 100	> 100	> 100	> 100	> 100	> 100	> 100	> 100	> 100	> 100	> 100	> 100	> 100	> 100	–	–
O=C(O)C12CC3CC(CC(F)(C3)C1)C2	> 100	> 100	–	> 100	> 100	–	> 100	> 100	> 100	–	> 100	> 100	> 100	> 100	> 100	–	> 100	–	–
